Laboratory results from ChEMBL document CHEMBL5696441 (Nat Chem Biol, 2011).

What was measured:
[1] = biological target: Misshapen-like kinase 1 (Homo sapiens) (UniProt Q8N4C8); test: Inhibition of human MINK1 assessed as residual activity at 1 uM using RBER-CHKtide as substrate in presence of 33P-ATP by ProQinase assay relative to control
[2] = Anti-inflammatory activity against human derived high respond PBMC cells assessed as inhibition in stimulated TARC chemokine release incubated for 2 hrs in the presence of LPS/SEB/aCD28 by Luminex based sandwich immunoassay; format: functional, cell-based
[3] = biological target: Dual specificity mitogen-activated protein kinase kinase 1 (Homo sapiens) (UniProt Q02750); test: Inhibition of MEK1 (unknown origin) assessed as remaining activity at 1 uM by Kinome scan method relative to control
[4] = biological target: Mitogen-activated protein kinase kinase kinase 6 (Homo sapiens) (UniProt O95382); test: Inhibition of ASK2 (unknown origin) assessed as remaining activity at 1 uM by Kinome scan method relative to control
[5] = biological target: Serine/threonine-protein kinase PAK 4 (Homo sapiens) (UniProt O96013); test: Inhibition of PAK4 (unknown origin) assessed as remaining activity at 1 uM by Kinome scan method relative to control
[6] = biological target: Dual serine/threonine and tyrosine protein kinase (Homo sapiens) (UniProt Q6XUX3); test: Inhibition of human RIPK5 assessed as residual activity at 1 uM using RBER-CHKtide as substrate in presence of 33P-ATP by ProQinase assay relative to control
[7] = biological target: Serine/threonine-protein kinase pim-1 (Homo sapiens) (UniProt P11309); test: Inhibition of PIM1 (unknown origin) assessed as remaining activity at 1 uM by Kinome scan method relative to control
[8] = biological target: Serine/threonine-protein kinase PAK 6 (Homo sapiens) (UniProt Q9NQU5); test: Inhibition of human PAK6 assessed as residual activity at 1 uM using bio-4xCHKT as substrate in presence of 33P-ATP by ProQinase assay relative to control
Serine/threonine-protein kinase PAK 6 (Homo sapiens), sequence (Q9NQU5 whole entry, looked up): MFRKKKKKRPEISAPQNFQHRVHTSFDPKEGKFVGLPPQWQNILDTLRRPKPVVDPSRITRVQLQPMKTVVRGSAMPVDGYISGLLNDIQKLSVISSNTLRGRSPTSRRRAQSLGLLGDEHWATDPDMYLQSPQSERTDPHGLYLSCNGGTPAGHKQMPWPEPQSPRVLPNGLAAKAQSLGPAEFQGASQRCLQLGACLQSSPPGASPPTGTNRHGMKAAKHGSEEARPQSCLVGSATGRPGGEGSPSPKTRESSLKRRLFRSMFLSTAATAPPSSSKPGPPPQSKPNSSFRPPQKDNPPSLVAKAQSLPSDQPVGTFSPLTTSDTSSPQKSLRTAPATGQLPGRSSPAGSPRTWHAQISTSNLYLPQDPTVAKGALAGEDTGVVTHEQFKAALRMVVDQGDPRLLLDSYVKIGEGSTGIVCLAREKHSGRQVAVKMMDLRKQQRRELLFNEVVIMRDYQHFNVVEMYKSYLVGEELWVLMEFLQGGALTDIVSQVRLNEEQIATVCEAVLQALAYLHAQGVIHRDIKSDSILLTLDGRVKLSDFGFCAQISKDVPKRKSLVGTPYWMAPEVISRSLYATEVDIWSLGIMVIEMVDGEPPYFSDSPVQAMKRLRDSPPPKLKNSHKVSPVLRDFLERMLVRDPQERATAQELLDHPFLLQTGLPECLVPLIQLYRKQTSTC

[9] = biological target: Ephrin type-A receptor 7 (Homo sapiens) (UniProt Q15375); test: Inhibition of human EPHA7 assessed as residual activity at 1 uM using polyEy as substrate in presence of 33P-ATP by ProQinase assay relative to control
[10] = biological target: Proto-oncogene tyrosine-protein kinase receptor Ret (Homo sapiens) (UniProt P07949); test: Inhibition of RET (unknown origin) assessed as remaining activity at 1 uM by Kinome scan method relative to control
Proto-oncogene tyrosine-protein kinase receptor Ret (Homo sapiens), sequence (P07949 whole entry): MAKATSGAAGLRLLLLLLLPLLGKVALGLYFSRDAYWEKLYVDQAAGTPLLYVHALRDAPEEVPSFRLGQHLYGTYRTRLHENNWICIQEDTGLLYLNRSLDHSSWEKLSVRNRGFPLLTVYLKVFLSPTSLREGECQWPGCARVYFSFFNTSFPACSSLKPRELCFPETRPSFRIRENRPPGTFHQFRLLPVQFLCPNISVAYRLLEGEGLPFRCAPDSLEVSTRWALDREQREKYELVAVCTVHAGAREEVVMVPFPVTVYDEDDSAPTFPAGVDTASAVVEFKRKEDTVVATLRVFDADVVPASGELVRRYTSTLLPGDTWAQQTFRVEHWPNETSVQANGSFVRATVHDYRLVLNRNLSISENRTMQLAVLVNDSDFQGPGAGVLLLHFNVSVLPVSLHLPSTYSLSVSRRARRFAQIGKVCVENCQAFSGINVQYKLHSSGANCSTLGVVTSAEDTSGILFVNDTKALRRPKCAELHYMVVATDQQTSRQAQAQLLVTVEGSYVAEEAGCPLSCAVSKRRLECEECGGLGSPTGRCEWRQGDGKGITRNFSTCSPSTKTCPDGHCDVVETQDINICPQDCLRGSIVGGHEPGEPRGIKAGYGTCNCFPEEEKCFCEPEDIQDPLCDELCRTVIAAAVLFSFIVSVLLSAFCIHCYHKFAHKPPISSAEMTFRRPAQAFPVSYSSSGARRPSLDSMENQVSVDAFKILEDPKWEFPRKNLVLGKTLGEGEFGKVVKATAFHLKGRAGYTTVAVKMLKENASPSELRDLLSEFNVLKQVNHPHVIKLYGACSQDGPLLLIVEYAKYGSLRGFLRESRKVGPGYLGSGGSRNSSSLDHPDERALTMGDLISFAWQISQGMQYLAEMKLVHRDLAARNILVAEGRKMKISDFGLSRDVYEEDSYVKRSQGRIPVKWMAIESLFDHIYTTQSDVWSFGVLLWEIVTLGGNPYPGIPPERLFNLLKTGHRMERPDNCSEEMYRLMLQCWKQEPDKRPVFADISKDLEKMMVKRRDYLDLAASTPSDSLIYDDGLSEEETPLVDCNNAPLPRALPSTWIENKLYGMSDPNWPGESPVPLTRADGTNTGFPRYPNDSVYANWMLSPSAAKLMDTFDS

[11] = biological target: Glycogen synthase kinase-3 beta (Homo sapiens) (UniProt P49841); test: Inhibition of human GSK3beta assessed as residual activity at 1 uM using RBER-CHKtide as substrate in presence of 33P-ATP by ProQinase assay relative to control
[12] = Anti-inflammatory activity against human derived medium respond PBMC cells assessed as inhibition in stimulated IL-13 cytokine release incubated for 2 hrs in the presence of LPS/SEB/aCD28 by Luminex based sandwich immunoassay; format: functional, cell-based
[13] = biological target: Casein kinase I isoform delta (Homo sapiens) (UniProt P48730); test: Inhibition of human CK1delta assessed as residual activity at 1 uM using casein as substrate in presence of 33P-ATP by ProQinase assay relative to control
[14] = biological target: Calcium/calmodulin-dependent protein kinase type 1 (Homo sapiens) (UniProt Q14012); test: Inhibition of CAMK1 (unknown origin) assessed as remaining activity at 1 uM by Kinome scan method relative to control
[15] = biological target: Protein kinase C beta type (Homo sapiens) (UniProt P05771); test: Inhibition of human PKCbeta1 assessed as residual activity at 1 uM using 3xChocktide-PKC(19-31) as substrate in presence of 33P-ATP by ProQinase assay relative to control
[16] = biological target: Maternal embryonic leucine zipper kinase (Homo sapiens) (UniProt Q14680); test: Inhibition of human MELK assessed as residual activity at 1 uM using RBER-CHKtide as substrate in presence of 33P-ATP by ProQinase assay relative to control
[17] = test system: Proto-oncogene tyrosine-protein kinase receptor Ret (Homo sapiens), P07949 [Y791F]; test: Inhibition of human RET Y791F mutant assessed as residual activity at 1 uM using polyEY as substrate in presence of 33P-ATP by ProQinase assay relative to control
Proto-oncogene tyrosine-protein kinase receptor Ret (Homo sapiens), P07949 [Y791F], sequence (P07949 whole entry Y791F): as the sequence (P07949 whole entry) above, with Y791F counted along it

[18] = biological target: Serine/threonine-protein kinase WNK3 (Homo sapiens) (UniProt Q9BYP7); test: Inhibition of human WNK3 assessed as residual activity at 1 uM using RB-S6P as substrate in presence of 33P-ATP by ProQinase assay relative to control
[19] = biological target: Tyrosine-protein kinase receptor UFO (Homo sapiens) (UniProt P30530); test: Inhibition of human AXL assessed as residual activity at 1 uM using polyEy as substrate in presence of 33P-ATP by ProQinase assay relative to control
Tyrosine-protein kinase receptor UFO (Homo sapiens), sequence (P30530 whole entry): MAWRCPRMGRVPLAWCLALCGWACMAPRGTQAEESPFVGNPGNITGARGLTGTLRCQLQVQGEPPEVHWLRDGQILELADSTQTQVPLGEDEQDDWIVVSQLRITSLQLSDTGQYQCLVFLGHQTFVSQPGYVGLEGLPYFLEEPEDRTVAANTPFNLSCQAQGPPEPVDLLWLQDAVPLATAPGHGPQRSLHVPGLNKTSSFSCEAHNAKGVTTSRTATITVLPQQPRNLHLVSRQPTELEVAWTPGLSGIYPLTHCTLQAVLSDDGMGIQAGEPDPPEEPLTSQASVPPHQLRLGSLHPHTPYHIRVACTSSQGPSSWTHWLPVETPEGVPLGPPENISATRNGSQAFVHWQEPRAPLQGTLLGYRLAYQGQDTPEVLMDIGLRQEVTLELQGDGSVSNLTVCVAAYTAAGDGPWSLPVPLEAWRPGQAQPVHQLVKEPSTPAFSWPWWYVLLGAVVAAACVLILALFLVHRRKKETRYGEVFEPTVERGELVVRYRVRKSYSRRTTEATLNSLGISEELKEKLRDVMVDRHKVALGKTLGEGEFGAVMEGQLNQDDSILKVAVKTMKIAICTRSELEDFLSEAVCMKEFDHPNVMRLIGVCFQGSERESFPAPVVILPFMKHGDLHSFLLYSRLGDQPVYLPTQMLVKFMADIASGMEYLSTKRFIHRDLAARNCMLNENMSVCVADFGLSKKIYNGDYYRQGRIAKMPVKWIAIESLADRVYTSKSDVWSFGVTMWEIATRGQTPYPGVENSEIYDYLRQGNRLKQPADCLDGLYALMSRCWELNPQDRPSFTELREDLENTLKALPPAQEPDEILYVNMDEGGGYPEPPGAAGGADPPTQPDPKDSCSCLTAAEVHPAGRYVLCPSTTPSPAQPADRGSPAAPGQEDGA

[20] = biological target: SRSF protein kinase 1 (Homo sapiens) (UniProt Q96SB4); test: Inhibition of human SRPK1 assessed as residual activity at 1 uM using MBP as substrate in presence of 33P-ATP by ProQinase assay relative to control
SRSF protein kinase 1 (Homo sapiens), sequence (Q96SB4 whole entry): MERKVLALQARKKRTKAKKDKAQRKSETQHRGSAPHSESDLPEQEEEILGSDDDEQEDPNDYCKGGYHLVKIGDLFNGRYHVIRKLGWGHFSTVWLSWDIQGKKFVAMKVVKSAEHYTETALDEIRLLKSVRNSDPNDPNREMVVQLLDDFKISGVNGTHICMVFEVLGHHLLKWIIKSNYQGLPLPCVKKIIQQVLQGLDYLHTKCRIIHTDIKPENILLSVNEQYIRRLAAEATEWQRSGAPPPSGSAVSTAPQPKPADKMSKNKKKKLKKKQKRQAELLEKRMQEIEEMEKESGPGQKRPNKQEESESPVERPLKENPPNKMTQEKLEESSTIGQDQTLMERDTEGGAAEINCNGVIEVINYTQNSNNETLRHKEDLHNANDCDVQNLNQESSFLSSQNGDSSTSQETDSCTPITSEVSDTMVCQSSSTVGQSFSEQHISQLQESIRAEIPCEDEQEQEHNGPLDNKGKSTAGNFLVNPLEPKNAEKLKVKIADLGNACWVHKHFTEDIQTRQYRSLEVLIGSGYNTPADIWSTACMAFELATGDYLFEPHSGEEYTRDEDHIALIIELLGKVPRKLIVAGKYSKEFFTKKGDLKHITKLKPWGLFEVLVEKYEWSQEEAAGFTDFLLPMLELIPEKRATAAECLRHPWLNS

[21] = test system: Epidermal growth factor receptor (Homo sapiens), P00533 [L858R,T790M]; test: Inhibition of EGFR L858R/T790M mutant (unknown origin) assessed as remaining activity at 1 uM by Kinome scan method relative to control
[22] = biological target: Ribosomal protein S6 kinase alpha-6 (Homo sapiens) (UniProt Q9UK32); test: Inhibition of N-terminal kinase domain RPS6KA6 (unknown origin) assessed as remaining activity at 1 uM by Kinome scan method relative to control
[23] = biological target: Receptor tyrosine-protein kinase erbB-3 (Homo sapiens) (UniProt P21860); test: Inhibition of ERBB3 (unknown origin) assessed as remaining activity at 1 uM by Kinome scan method relative to control
[24] = biological target: Serine/threonine-protein kinase Nek7 (Homo sapiens) (UniProt Q8TDX7); test: Inhibition of human NEK7 assessed as residual activity at 1 uM using casein as substrate in presence of 33P-ATP by ProQinase assay relative to control
Serine/threonine-protein kinase Nek7 (Homo sapiens), sequence (Q8TDX7 whole entry, looked up): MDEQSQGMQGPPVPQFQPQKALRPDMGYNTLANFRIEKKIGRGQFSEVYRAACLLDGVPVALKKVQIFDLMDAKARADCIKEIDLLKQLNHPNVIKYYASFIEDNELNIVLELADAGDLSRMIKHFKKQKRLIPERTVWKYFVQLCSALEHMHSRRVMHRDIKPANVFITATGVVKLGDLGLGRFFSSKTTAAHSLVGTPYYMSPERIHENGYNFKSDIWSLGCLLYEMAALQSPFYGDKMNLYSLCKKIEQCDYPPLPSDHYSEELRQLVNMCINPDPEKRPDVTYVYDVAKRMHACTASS

[25] = biological target: Serine/threonine-protein kinase 17B (Homo sapiens) (UniProt O94768); test: Inhibition of DRAK2 (unknown origin) assessed as remaining activity at 1 uM by Kinome scan method relative to control
[26] = biological target: Tyrosine-protein kinase Mer (Homo sapiens) (UniProt Q12866); test: Inhibition of human MERTK assessed as residual activity at 1 uM using polyEY as substrate in presence of 33P-ATP by ProQinase assay relative to control
[27] = biological target: Ribosomal protein S6 kinase alpha-1 (Homo sapiens) (UniProt Q15418); test: Inhibition of N-terminal kinase domain RPS6KA1 (unknown origin) assessed as remaining activity at 1 uM by Kinome scan method relative to control
[28] = biological target: Mitogen-activated protein kinase 10 (Homo sapiens) (UniProt P53779); test: Inhibition of human JNK3 assessed as residual activity at 1 uM using ATF2 as substrate in presence of 33P-ATP by ProQinase assay relative to control

Misshapen-like kinase 1 (Homo sapiens), sequence (Q8N4C8 whole entry, looked up): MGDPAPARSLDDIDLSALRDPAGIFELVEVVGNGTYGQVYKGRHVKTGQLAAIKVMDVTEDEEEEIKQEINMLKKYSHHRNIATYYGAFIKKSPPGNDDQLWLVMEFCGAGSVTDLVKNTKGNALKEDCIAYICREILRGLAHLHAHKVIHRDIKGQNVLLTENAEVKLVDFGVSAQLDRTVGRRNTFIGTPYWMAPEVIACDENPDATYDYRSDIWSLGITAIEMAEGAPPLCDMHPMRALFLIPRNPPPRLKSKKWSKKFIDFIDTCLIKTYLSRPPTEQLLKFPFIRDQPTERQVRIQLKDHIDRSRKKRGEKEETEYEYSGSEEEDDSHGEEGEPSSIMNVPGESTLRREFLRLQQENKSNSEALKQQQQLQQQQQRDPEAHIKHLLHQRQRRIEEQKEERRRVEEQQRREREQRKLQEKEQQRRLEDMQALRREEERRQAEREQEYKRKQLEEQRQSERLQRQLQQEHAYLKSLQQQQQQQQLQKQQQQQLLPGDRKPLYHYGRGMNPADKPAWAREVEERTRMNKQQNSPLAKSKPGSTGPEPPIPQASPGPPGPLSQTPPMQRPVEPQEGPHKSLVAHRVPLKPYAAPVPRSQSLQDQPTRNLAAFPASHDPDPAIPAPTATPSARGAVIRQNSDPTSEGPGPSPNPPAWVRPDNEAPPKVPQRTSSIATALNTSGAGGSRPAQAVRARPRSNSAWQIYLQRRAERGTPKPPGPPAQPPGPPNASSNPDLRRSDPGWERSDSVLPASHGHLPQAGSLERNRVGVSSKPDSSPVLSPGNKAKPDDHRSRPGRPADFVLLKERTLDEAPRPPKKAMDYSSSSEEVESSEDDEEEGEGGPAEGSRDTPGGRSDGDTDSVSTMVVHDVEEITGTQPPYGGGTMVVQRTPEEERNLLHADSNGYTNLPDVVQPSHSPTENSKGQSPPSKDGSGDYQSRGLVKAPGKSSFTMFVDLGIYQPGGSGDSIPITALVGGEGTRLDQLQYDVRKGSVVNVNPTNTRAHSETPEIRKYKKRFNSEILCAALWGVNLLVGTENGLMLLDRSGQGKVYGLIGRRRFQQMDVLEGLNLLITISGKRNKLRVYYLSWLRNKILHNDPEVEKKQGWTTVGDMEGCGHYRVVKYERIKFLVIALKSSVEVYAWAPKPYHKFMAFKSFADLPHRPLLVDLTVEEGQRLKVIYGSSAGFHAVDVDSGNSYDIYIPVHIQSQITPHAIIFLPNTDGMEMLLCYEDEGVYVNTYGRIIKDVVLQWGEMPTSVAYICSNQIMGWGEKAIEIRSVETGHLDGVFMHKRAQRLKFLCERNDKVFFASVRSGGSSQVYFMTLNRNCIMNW

Compound: O=C1c2ccc(Nc3ccc(F)cc3F)cc2CCc2ccc(OC[C@H](O)CO)cc21 [Skepinone-L]
- Activity [1]: 94%
- IC50 [2]: Not Active
- Activity [3]: 86%
- Activity [4]: 100%
- Activity [5]: 100%
- Activity [6]: 95%
- Activity [7]: 100%
- Activity [8]: 101%
- Activity [9]: 109%
- Activity [10]: 97%
- Activity [11]: 97%
- IC50 [12]: 4.38 µM
- Activity [13]: 98%
- Activity [14]: 100%
- Activity [15]: 103%
- Activity [16]: 81%
- Activity [17]: 141%
- Activity [18]: 100%
- Activity [19]: 100%
- Activity [20]: 100%
- Activity [21]: 100%
- Activity [22]: 90%
- Activity [23]: 100%
- Activity [24]: 83%
- Activity [25]: 99%
- Activity [26]: 98%
- Activity [27]: 100%
- Activity [28]: 33%
